In ChEMBL document CHEMBL2074022, “Penetration of endogenous steroid hormones corticosterone, cortisol, aldosterone and progesterone into the brain is enhanced in mice deficient for both mdr1a and mdr1b P-glycoproteins” (J Neuroendocrinol, 2002):

Tests used:
Conditions in all cases: in vivo
[1] = target: P-glycoprotein 1 and 3 (MDR1a/MDR1b) (Mus musculus, UniProt P21447+P06795); assay: (§1) TP_TRANSPORTER: increase in testes concentration in mdr1a/1b(-/-) mouse; assay type: functional, organism-based, Testis
[2] = target: T1, ATP-dependent translocase ABCB1 (Mus musculus, UniProt P21447); assay: TP_TRANSPORTER: increase in brain concentration in mdr1a/1b(-/-) mouse; assay type: functional, organism-based
[3] = target: T1, ATP-dependent translocase ABCB1; assay: as §1; assay type: functional, organism-based, Testis

T1 sequence (P21447 whole entry): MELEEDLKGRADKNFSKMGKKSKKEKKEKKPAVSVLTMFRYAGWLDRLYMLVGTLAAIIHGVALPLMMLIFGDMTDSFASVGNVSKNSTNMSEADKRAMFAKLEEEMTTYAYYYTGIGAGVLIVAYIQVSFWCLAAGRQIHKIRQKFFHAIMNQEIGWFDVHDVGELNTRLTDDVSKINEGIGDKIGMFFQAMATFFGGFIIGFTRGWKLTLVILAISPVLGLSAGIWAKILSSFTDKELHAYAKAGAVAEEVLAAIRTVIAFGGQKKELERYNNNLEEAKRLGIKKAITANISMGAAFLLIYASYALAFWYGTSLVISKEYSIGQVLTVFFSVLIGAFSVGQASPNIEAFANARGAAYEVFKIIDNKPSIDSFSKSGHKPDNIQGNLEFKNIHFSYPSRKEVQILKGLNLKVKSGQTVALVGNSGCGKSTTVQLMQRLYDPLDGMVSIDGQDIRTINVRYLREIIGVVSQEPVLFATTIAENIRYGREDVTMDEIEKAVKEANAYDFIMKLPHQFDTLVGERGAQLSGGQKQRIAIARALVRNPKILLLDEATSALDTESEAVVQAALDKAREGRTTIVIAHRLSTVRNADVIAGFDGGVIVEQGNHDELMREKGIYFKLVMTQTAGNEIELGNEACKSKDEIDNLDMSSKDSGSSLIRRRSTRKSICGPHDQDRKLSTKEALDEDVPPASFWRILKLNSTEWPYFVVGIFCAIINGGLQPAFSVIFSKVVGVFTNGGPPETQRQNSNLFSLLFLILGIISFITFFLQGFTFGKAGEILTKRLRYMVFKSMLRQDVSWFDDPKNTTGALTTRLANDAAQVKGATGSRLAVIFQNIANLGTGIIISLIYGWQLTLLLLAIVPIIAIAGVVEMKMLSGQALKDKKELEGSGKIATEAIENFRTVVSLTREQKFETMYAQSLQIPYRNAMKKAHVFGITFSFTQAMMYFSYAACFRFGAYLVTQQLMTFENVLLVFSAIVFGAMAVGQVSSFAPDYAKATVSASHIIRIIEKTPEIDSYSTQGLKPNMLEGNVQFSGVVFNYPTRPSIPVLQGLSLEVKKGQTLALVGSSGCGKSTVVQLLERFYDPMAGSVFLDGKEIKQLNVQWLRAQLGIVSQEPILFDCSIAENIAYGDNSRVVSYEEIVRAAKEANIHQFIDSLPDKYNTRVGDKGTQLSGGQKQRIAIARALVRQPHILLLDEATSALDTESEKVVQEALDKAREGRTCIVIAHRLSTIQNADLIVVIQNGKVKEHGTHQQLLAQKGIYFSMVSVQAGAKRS

Structure (SMILES)	Activity [1]	Activity [2]	Activity [3]
C[C@]12CCC(=O)C=C1CC[C@@H]1[C@@H]2[C@@H](O)C[C@@]2(C)[C@H]1CC[C@]2(O)C(=O)CO [HYDROCORTISONE]	substrate [+]	–	–
C[C@]12CCC(=O)C=C1CC[C@@H]1[C@@H]2[C@@H](O)C[C@]2(C=O)[C@@H](C(=O)CO)CC[C@@H]12 [ALDOSTERONE]	substrate [+]	–	–
CC(=O)[C@H]1CC[C@H]2[C@@H]3CCC4=CC(=O)CC[C@]4(C)[C@H]3CC[C@]12C [PROGESTERONE]	–	substrate [+]	substrate [+]
